Consider ten compounds from ChEMBL document CHEMBL4196146, “Targeted Isolation of Neuroprotective Dicoumaroyl Neolignans and Lignans from Sageretia theezans Using in Silico Molecular Network Annotation Propagation-Based Dereplication” (J Nat Prod, 2018).

The test system of series [1] is HT-22. The series can be described thus: Cytotoxicity against mouse HT22 cells assessed as effect on cell viability at >25 uM after 2 hrs by MTT assay. The class given is cell-based. The following applies: ht-22, 2 h. (In general: Tetrazolium assays rely on reduction of a dye to a coloured formazan, in cell work by metabolically active cells.)
In series [2] the test system is HT-22. The series can be described thus: Neuroprotective activity against glutamate-induced cell death in mouse HT22 cells assessed as increase in cell viability at 1.6 uM pretreated for 2 hrs followed by glutamate-challenge and measured after 20 hrs by MTT assay (reference value: 23 +/- 3.57%). The series is classed as functional, cell-based.
Series [3] has as its system HT-22. The series can be described thus: Neuroprotective activity against glutamate-induced cell death in mouse HT22 cells assessed as cell viability at 12.5 uM pretreated for 2 hrs followed by glutamate-challenge and measured after 20 hrs by MTT assay (reference value: 23 +/- 3.57%). The class given is functional. Conditions: for viability at 12.5 µM: read-out: Activity.

SMILES strings stand for the structures. The source made the active and inactive calls. No cut-off for these calls is given here.

As to `COc1cc([C@@H](O)[C@H](COC(=O)/C=C/c2ccc(O)cc2)Oc2ccc(/C=C/COC(=O)/C=C\c3ccc(O)cc3)cc2OC)ccc1O`, the Activity entry in the series on HT-22 [1] is given as “Toxic”. Besides, the outcome in the series on HT-22 [2] and with HT-22 [3] was Active.

Turning to `COc1cc(C[C@@H](COC(=O)/C=C/c2ccc(O)cc2)[C@H](COC(=O)/C=C/c2ccc(O)cc2)Cc2ccc(O)c(OC)c2)ccc1O`, the Activity entry in the series with HT-22 [1] is “Toxic”. The result in the series on HT-22 [2] was Active. Also, the viability at 12.5 µM with HT-22 [3] was 63%.

Regarding `Cc1c(C)c2c(c(C)c1O)CCC(C)(C(=O)O)O2` (stereo not drawn) [TROLOX], in the series with HT-22 [3], the viability at 12.5 µM stood at 52%.

For the compound `COc1cc([C@H](O)[C@H](COC(=O)/C=C\c2ccc(O)cc2)Oc2ccc(/C=C/COC(=O)/C=C/c3ccc(O)cc3)cc2OC)ccc1O`, the Activity result with HT-22 [1] is given as “Toxic”. Also, the result in the series with HT-22 [2] and in the series on HT-22 [3] was Active.

On to `COc1cc([C@H](O)[C@H](COC(=O)/C=C/c2ccc(O)cc2)Oc2ccc(/C=C/COC(=O)/C=C\c3ccc(O)cc3)cc2OC)ccc1O`, for which, in the series with HT-22 [1], the Activity result is on record as “Toxic”. In addition, the result in the series with HT-22 [2] and in the series with HT-22 [3] was Active.

As to `COc1cc(C[C@@H](COC(=O)/C=C\c2ccc(O)cc2)[C@H](COC(=O)/C=C/c2ccc(O)cc2)Cc2ccc(O)c(OC)c2)ccc1O`, the Activity entry in the series on HT-22 [1] is “Toxic”. Also, the outcome with HT-22 [2] was Active. In addition, in the series on HT-22 [3], the viability at 12.5 µM worked out at 73%.

Turning to `COc1cc(C[C@@H](COC(=O)/C=C\c2ccc(O)cc2)[C@H](COC(=O)/C=C\c2ccc(O)cc2)Cc2ccc(O)c(OC)c2)ccc1O`, in the series with HT-22 [1], the Activity result is reported as “Toxic”. The result with HT-22 [2] was Active. In addition, the viability at 12.5 µM with HT-22 [3] stood at 74%.

Consider `COc1cc([C@@H](O)[C@H](COC(=O)/C=C\c2ccc(O)cc2)Oc2ccc(/C=C/COC(=O)/C=C/c3ccc(O)cc3)cc2OC)ccc1O`, for which the Activity entry in the series on HT-22 [1] is reported as “Toxic”. In addition, the outcome in the series on HT-22 [2] and in the series with HT-22 [3] was Active.

In the case of `COc1cc([C@@H](O)[C@H](COC(=O)/C=C/c2ccc(O)cc2)Oc2ccc(/C=C/COC(=O)/C=C/c3ccc(O)cc3)cc2OC)ccc1O`, the Activity result in the series on HT-22 [1] is recorded as “Toxic”. Besides, the result with HT-22 [2] and in the series with HT-22 [3] was Active.

Regarding `COc1cc([C@H](O)[C@H](COC(=O)/C=C/c2ccc(O)cc2)Oc2ccc(/C=C/COC(=O)/C=C/c3ccc(O)cc3)cc2OC)ccc1O`, the Activity entry in the series with HT-22 [1] is reported as “Toxic”. Further, the outcome with HT-22 [2] and with HT-22 [3] was Active.
